Reference: US20240293392A1, “INHIBITOR COMPOUNDS” (NeoPhore Limited, priority 2021, published 2024)

Experiments:
[1] = molecular target: T1, recombinant N-terminal MLH1 (residues 15-340) (Homo sapiens, UniProt P40692); test: Fluorescence Polarisation Assay for MLH1; assay type: binding; details: fluorescence polarisation probe displacement; 100 nM N-terminal MLH1, 5 nM probe compound
T1 construct: recombinant N-terminal MLH1 (residues 15-340)
T1 sequence (P40692 15-340): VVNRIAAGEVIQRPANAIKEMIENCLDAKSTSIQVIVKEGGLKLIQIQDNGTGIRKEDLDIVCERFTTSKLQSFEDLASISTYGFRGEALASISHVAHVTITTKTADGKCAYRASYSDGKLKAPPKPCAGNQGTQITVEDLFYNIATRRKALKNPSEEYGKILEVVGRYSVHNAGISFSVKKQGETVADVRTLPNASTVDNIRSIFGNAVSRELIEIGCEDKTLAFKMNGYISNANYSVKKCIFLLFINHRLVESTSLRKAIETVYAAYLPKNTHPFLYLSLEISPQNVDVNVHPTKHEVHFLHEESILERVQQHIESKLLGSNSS
Experimental: Fluorescence Polarisation Assay for MLH1
Test compounds, as 10 mM DMSO stocks, were dispensed into a 384-well Low Flange Black Flat Bottom Polystyrene Non-binding Surface plate (Corning®, item number 3575) using a Labcyte Echo acoustic liquid handler. Test compounds were added to wells in columns 1-22 whilst DMSO was added to wells in columns 23 and 24 in order to normalise the plate. 20 μL of a 2× solution (200 nM) of recombinant N-terminal MLH1 (residues 15-340) in assay buffer (25 mM HEPES, pH 7.5, 250 mM NaCl, 10 mM MgCl2, 0.01% Triton X-100, 5 mM dithiothreitol) was added to all wells in columns 1-23 and 20 μL assay buffer was added to all wells in column 24 using an E1-ClipTip pipette (ThermoFisher). Plates were centrifuged for 1 minute at 250×g and were incubated at room temperature for 30 minutes prior to the addition of 20 μL of 2× (10 nM) 5-((5-(4-((2-(2,4-dihydroxy-5-isopropylbenzoyl)isoindolin-5-yl)methyl)piperazin-1-yl)pentyl)carbamoyl)-2-(6-(dimethylamino)-3-(dimethyliminio)-3H-xanthen-9-yl)benzoate in assay buffer (prepared from a 1 mM DMSO stock) with an E1-ClipTip pipette (ThermoFisher). The final concentration of N-terminal MLH1 was 100 nM and the final concentration of the probe compound was 5 nM. Compound plates were centrifuged for 1 minute at 250×g for 1 minute and immediately read on a PheraStar FSX (fitted with 384-well aperture spoon and 590 675 675 FP optic module). The gain and focus were adjusted before each plate was read so that the polarisation of a no enzyme control (column 24) was equal to 35 mP. Data were normalised against the no inhibitor controls (column 23) and no enzyme controls (column 24).

[2] = molecular target: T2, recombinant N-terminal PMS2 (residues 1-365) (Homo sapiens, UniProt P54278); test: Fluorescence Polarisation Assay for PMS2; assay type: binding; details: fluorescence polarisation probe displacement; 10 nM N-terminal PMS2, 5 nM probe compound; read-out: PMS2 IC50
T2 construct: recombinant N-terminal PMS2 (residues 1-365)
T2 sequence (P54278 1-365): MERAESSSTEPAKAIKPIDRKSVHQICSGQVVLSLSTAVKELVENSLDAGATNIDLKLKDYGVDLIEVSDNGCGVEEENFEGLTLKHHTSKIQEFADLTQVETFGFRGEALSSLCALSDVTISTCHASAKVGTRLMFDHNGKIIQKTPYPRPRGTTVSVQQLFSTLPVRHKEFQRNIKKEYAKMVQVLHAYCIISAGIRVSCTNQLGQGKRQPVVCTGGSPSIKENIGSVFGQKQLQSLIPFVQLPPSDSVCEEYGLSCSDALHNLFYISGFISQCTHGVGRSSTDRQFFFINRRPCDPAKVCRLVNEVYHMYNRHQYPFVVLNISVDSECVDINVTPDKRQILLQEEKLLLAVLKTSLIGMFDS
Experimental: Fluorescence Polarisation Assay for PMS2
For single point screening, test compounds were added to wells in columns 1-22 whilst DMSO was added to wells in columns 23 and 24 in order to normalise the plate. For potency determination, serial dilutions of test compounds were added to wells in columns 3-22 and DMSO volume was normalised across the plate.
20 μL assay buffer was added to all wells in columns 1 and 24 (column 24 only for single point screening) using a MultiDrop Combi (ThermoFisher). Plates were centrifuged for 1 minute at 250×g and were incubated at room temperature for 30 minutes prior to the addition of 20 μL of 2× (20 nM) of 5-((5-(4-((2-(2,4-dihydroxy-5-isopropylbenzoyl)isoindolin-5-yl)methyl)piperazin-1-yl)pentyl)carbamoyl)-2-(6-(dimethylamino)-3-(dimethyliminio)-3H-xanthen-9-yl)benzoate (referred to hereinafter as “probe compound”) in assay buffer (prepared from a 100 μM DMSO stock) with a MultiDrop Combi (ThermoFisher). The final concentration of N-terminal PMS2 was 10 nM and the final concentration of probe compound was 5 nM.
Compound plates were centrifuged for 1 minute at 250×g for 1 minute and were incubated at room temperature for 1 hour before being read on a PheraStar FSX (fitted with 384-well aperture spoon and 540 590 590 FP optic module). The gain and focus were adjusted before each plate was read so that the polarisation of a no enzyme control (column 24) was equal to 35 mP. Data were normalised against the no inhibitor controls (column 23) and no enzyme controls (column 24).

| Compound | IC50 [1] | IC50 [2] |
| --- | --- | --- |
| O=C(c1c(O)cc(O)cc1OCC1CCCCC1)N1Cc2cccc(NC3CCOC3)c2C1 (centres unmarked) [Example 26, (2-(cyclohexylmethoxy)-4,6-dihydroxyphenyl)(4-((tetrahydrofuran-3-yl)amino)isoindolin-2-yl)methanone] | 1000 to 10000 nM | 1000 to 10000 nM |
| O=C(c1c(O)cc(O)cc1OCC1CCCCC1)N1CCc2cccc(NC3CCOC3)c2C1 (centres unmarked) [Example 28, (2-(Cyclohexylmethoxy)-4,6-dihydroxyphenyl)(8-((tetrahydrofuran-3-yl)amino)-3,4-dihydroisoquinolin-2(1H)-yl)methanone] | 1000 to 10000 nM | 1000 to 10000 nM |
| CNc1cccc2c1CN(C(=O)c1c(O)cc(O)cc1OCc1ccccc1)C2 [Example 29, (2-(Benzyloxy)-4,6-dihydroxyphenyl)(4-(methylamino)isoindolin-2-yl)methanone] | 1000 to 10000 nM | 1000 to 10000 nM |
| O=C(c1c(O)cc(O)cc1OCc1ccccc1)N1Cc2cccc(NCC3CCCO3)c2C1 (centres unmarked) [Example 33, (2-(Benzyloxy)-4,6-dihydroxyphenyl)(4-(((tetrahydrofuran-2-yl)methyl)amino)isoindolin-2-yl)methanone] | < 1000 nM | 1000 to 10000 nM |
| O=C(c1c(O)cc(O)cc1OCc1ccccc1)N1Cc2cccc(Nc3cn[nH]c3)c2C1 [Example 34, (4-((1H-Pyrazol-4-yl)amino)isoindolin-2-yl)(2-(benzyloxy)-4,6-dihydroxyphenyl)methanone] | < 1000 nM | 1000 to 10000 nM |
| Cn1ncc(Nc2cccc3c2CN(C(=O)c2c(O)cc(O)cc2OCc2ccccc2)C3)n1 [Example 35, (2-(Benzyloxy)-4,6-dihydroxyphenyl)(4-((2-methyl-2H-1,2,3-triazol-4-yl)amino)isoindolin-2-yl)methanone] | < 1000 nM | 1000 to 10000 nM |
| CC(=O)N1CCC(Nc2cccc3c2CN(C(=O)c2c(O)cc(O)cc2OCc2ccccc2)C3)C1 (centres unmarked) [Example 36, 1-(3-((2-(2-(Benzyloxy)-4,6-dihydroxybenzoyl)isoindolin-4-yl)amino)pyrrolidin-1-yl)ethan-1-one] | < 1000 nM | 1000 to 10000 nM |
| CN1CC(Nc2cccc3c2CN(C(=O)c2c(O)cc(O)cc2OCc2ccccc2)CC3)CC1=O (centres unmarked) [Example 42, 4-((2-(2-(Benzyloxy)-4,6-dihydroxybenzoyl)-1,2,3,4-tetrahydroisoquinolin-8-yl)amino)-1-methylpyrrolidin-2-one] | < 1000 nM | < 1000 nM |
| CNc1cccc2c1CN(C(=O)c1c(O)cc(O)cc1OCc1ccccc1)CC2 [Example 43, (2-(Benzyloxy)-4,6-dihydroxyphenyl)(8-(methylamino)-3,4-dihydroisoquinolin-2(1H)-yl)methanone] | < 1000 nM | 1000 to 10000 nM |
| COCCNc1cccc2c1CN(C(=O)c1c(O)cc(O)cc1OCc1ccccc1)CC2 [Example 44, (2-(Benzyloxy)-4,6-dihydroxyphenyl)(8-((2-methoxyethyl)amino)-3,4-dihydroisoquinolin-2(1H)-yl)methanone] | < 1000 nM | 1000 to 10000 nM |
| CC(Nc1cccc2c1CN(C(=O)c1c(O)cc(O)cc1OCc1ccccc1)C2)C1COC1 (centres unmarked) [Example 45, (2-(Benzyloxy)-4,6-dihydroxyphenyl)(4-((1-(oxetan-3-yl)ethyl)amino)isoindolin-2-yl)methanone] | 1000 to 10000 nM | 1000 to 10000 nM |
| CN(C)Cc1ccc2c(c1)CCN(C(=O)c1c(O)cc(O)cc1OCc1ccccc1)C2 [Example 46, (2-Benzyloxy-4,6-dihydroxy-phenyl)-[6-[(dimethylamino)methyl]-3,4-dihydro-1H-isoquinolin-2-yl]methanone] | 1000 to 10000 nM | 1000 to 10000 nM |
| CN(C)Cc1ccc2c(c1)CN(C(=O)c1c(O)cc(O)cc1OCc1ccccc1)CC2 [Example 47, (2-Benzyloxy-4,6-dihydroxy-phenyl)-[7-[(dimethylamino)methyl]-3,4-dihydro-1H-isoquinolin-2-yl]methanone] | 1000 to 10000 nM | 1000 to 10000 nM |
| COc1ccc2c(c1)CCN(C(=O)c1c(O)cc(O)cc1OCc1ccccc1)C2 [Example 48, (2-Benzyloxy-4,6-dihydroxy-phenyl)-(6-methoxy-3,4-dihydro-1H-isoquinolin-2-yl)methanone] | 1000 to 10000 nM | 1000 to 10000 nM |

More lines, now with the values ahead:

| IC50 [1] | IC50 [2] | Compound |
| --- | --- | --- |
| < 1000 nM | 1000 to 10000 nM | O=C(c1c(O)cc(O)cc1OCC1CC1)N1Cc2cccc(NC3CCOC3)c2C1 (centres unmarked) [Example 25, (2-(Cyclopropylmethoxy)-4,6-dihydroxyphenyl)(4-((tetrahydrofuran-3-yl)amino)isoindolin-2-yl)methanone] |
| 1000 to 10000 nM | 1000 to 10000 nM | O=C(c1c(O)cc(O)cc1OCc1ccccc1)N1CCc2c(cccc2NC2CCOC2)C1 (centres unmarked) [Example 27, (2-(Benzyloxy)-4,6-dihydroxyphenyl)(5-((tetrahydrofuran-3-yl)amino)-3,4-dihydroisoquinolin-2(1H)-yl)methanone] |
| 1000 to 10000 nM | 1000 to 10000 nM | O=C(c1c(O)cc(O)cc1OCc1ccccc1)N1Cc2cccc(NC3COCC(F)(F)C3)c2C1 (centres unmarked) [Example 32, (2-(Benzyloxy)-4,6-dihydroxyphenyl)(4-((5,5-difluorotetrahydro-2H-pyran-3-yl)amino)isoindolin-2-yl)methanone] |
| < 1000 nM | 1000 to 10000 nM | O=C(c1c(O)cc(O)cc1OCc1ccc(F)cc1)N1Cc2cccc(NC3CCOC3)c2C1 (centres unmarked) [Example 37, (2-((4-Fluorobenzyl)oxy)-4,6-dihydroxyphenyl)(4-((tetrahydrofuran-3-yl)amino)isoindolin-2-yl)methanone] |
| < 1000 nM | 1000 to 10000 nM | O=C(c1c(O)cc(O)cc1OCc1ccc(F)c(F)c1)N1Cc2cccc(NC3CCOC3)c2C1 (centres unmarked) [Example 38, (2-((3,4-Difluorobenzyl)oxy)-4,6-dihydroxyphenyl)(4-((tetrahydrofuran-3-yl)amino)isoindolin-2-yl)methanone] |
| < 1000 nM | 1000 to 10000 nM | COc1ccc(COc2cc(O)cc(O)c2C(=O)N2Cc3cccc(NC4CCOC4)c3C2)cc1 (centres unmarked) [Example 39, (2,4-Dihydroxy-6-((4-methoxybenzyl)oxy)phenyl)(4-((tetrahydrofuran-3-yl)amino)isoindolin-2-yl)methanone] |
| < 1000 nM | > 10000 nM | O=C(c1c(O)cc(O)cc1OCc1ccccn1)N1Cc2cccc(NC3CCOC3)c2C1 (centres unmarked) [Example 40, (2,4-Dihydroxy-6-(pyridin-2-ylmethoxy)phenyl)(4-((tetrahydrofuran-3-yl)amino)isoindolin-2-yl)methanone] |
| < 1000 nM | 1000 to 10000 nM | O=C(c1c(O)cc(O)cc1OCc1ccccc1)N1CCc2cccc(NC3COC3)c2C1 [Example 41, (2-(Benzyloxy)-4,6-dihydroxyphenyl)(8-(oxetan-3-ylamino)-3,4-dihydroisoquinolin-2(1H)-yl)methanone] |
